Assay results reported in PMC5556109, “A combinatorial approach for the discovery of cytochrome P450 2D6 inhibitors from nature” (Scientific Reports, 2017).
Like-named read-outs stand apart in the source and are kept apart here.

Assays:
[1] = test system: P450-Glo detection reaction (unspecific esterase and modified firefly-luciferase); experiment: P450-Glo detection reaction control (luciferin-EGE, esterase, luciferase, test compound, no CYP2D6); conditions: for P450-Glo Detection Reaction MEAN Diff. (inhibition of the detection reaction) / P450-Glo Detection Reaction MEAN (total luminescence): 50 µM test compound; for P450-Glo Detection Reaction MEAN Diff. (inhibition of the detection reaction): difference to DMSO 1% control; for P450-Glo Detection Reaction MEAN (total luminescence): no CYP2D6, DMSO control = 100; for p < 0.05 (significant inhibition of the P450-Glo detection reaction): 50 µM, one-way ANOVA, Dunnett's test vs DMSO control
Source text: This detection-reagent consists of i) a detergent that stops the CYP2D6 enzyme reaction, ii) an unspecific esterase that continuously releases luciferin and iii) a modified firefly-luciferase, thus a stable luminogenic signal is generated, which can be quantified by a luminometer (Fig. 1). The detection reaction is incorporated in the P450-Glo CYP2D6 inhibition assay. However, we implemented additional controls for unspecific interactions of the test compounds with the detection reaction. For this purpose, the previously established luminescence quenching control reaction reported by Modarai et al.[9] was adapted to our requirements with modifications for the use of larger sample volumes. In addition, Modarai et al. converted ME-luciferin-EGE to luciferin in the absence of a test compound and then evaluated the inhibition of the luciferase reaction.We conducted the control step by using pure luciferin-EGE, esterase, luciferase and a test compound in the absence of CYP2D6 (Supplementary Table S4).
The quantification of the P450-Glo detection reaction was performed by subtracting the background values prior to calculating the percentage of total luminescence (% TL) based on the total luminescence obtained from the solvent control (set to 100%).
We then added 12.5 µl 4× reaction mixture (5 µl 1.5 mM luciferin-EGE stock solution, 500 µl 1 M KPO4 buffer and 745 µl luciferase free water) to the wells. Finally, 25 µl of the 2× NADPH regeneration system was added. In order to initiate the detection reaction, 50 µl of the reconstituted luciferin detection reagent containing the esterase was added to the samples, positive and solvent control wells. This step was followed by 20 minutes incubation in the dark for signal stabilization. In the wells reserved for background luminescence, luciferase-free water was added. Measurements were performed on a Tecan infinite F200 PRO plate reader on two independent days (n = 2) at minimum.
(§1) Raw data obtained from Tecan infinite F200 PRO plate reader was processed by calculating total luminescence (% of untreated control) by applying the formula: raw data − (background luminescence) * 100/mean of negative control.
A one-way ANOVA followed by Dunnett’s multiple comparisons test was performed. […] A p-value of < 0.05 was used to indicate significance.

CYP2D6 [2] = biological target: CYP2D6 (Homo sapiens, UniProt P10635); experiment: P450-Glo CYP2D6 inhibition assay (bioluminescence-based; pre-screen at 100 µM and IC50 determination); conditions: for classification of CYP2D6 inhibition (actives / weak actives / inactives): ranked by IC50, inactives from pre-screen at 100 µM
Chain of CYP2D6 (Homo sapiens, UniProt P10635) (P10635 whole entry): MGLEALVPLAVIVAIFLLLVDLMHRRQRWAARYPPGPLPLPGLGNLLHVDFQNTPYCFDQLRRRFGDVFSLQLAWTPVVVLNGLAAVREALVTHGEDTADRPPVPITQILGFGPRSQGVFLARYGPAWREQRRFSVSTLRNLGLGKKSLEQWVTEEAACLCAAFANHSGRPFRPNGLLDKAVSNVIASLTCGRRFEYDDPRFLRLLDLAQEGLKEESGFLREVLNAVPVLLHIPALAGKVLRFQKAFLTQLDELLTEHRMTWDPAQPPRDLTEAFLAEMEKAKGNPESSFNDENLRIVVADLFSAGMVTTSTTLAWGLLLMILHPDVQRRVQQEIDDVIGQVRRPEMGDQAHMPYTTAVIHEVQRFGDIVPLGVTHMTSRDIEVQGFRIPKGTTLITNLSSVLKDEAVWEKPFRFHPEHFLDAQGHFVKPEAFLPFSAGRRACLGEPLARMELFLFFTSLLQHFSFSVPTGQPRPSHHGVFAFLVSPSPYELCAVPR
Experimental: Their CYP2D6 inhibitory potential was determined at a concentration of 100 µM in a final reaction volume of 50 µl. […] All compounds were dissolved in DMSO and the concentration thereof in the final reaction volume was 1%, according to the limitations indicated in the manufacturer’s protocol. […] To take into account the background luminescence, which may derive from a non-enzymatic conversion of ME-luciferin-EGE to luciferin, we included a ‘minus P450’ control that contained no CYP2D6 enzyme. In order to quantify CYP2D6 activity, we subtracted background values prior to calculating the percentage of total luminescence (% TL) obtained from the solvent control (set to 100%). Low % TL indicates low CYP2D6 activity.
In the three minus P450 control wells, 12.25 µl of the 4× reaction mixture was added. […] The plate was incubated for 10 minutes. The CYP2D6 enzyme reaction was initiated by the addition of 25 µl of 2× NADPH regeneration system (2.6 mM NADP^+, 6.6 mM glucose-6-phosphate, 6.6 mM MgCl2 and 0.8 U/ml glucose-6-phosphate dehydrogenase buffered in 0.1 mM sodium citrate at pH 5.5; Promega). After 45 minutes incubation, the enzyme reaction was stopped by the addition of 50 µl of the luciferin detection reagent, which contained also the esterase for the generation of the luminescence signal. The plate was incubated in the dark for 20 minutes in order to stabilize the signal measured by a Tecan infinite F200 PRO plate reader. […] The maximum allowed DMSO concentration in the final reaction mix was 1% according to the manufacturer’s protocol. The experiment was performed at room temperature and under prevention of excessive UV-light at minimum on two independent days (n = 2).
Concentration-dependent CYP2D6 inhibition assays were performed by preparing a 5-step dilution series of the 400 µM compound solutions. […] After this dilution step, 12.5 µl of each dilution was transferred to the assay plate. The assay was performed as described above. The DMSO concentration was kept constant for all concentrations with a maximum of 1%. The experiments were performed on three independent experimental days (n = 3).
as §1

CYP2D6 [3] = experiment: CYP2D6 inhibition of virtual hits already reported in the literature
Source text: the hits according to non-available CYP2D6 inhibition data, plant origin and availability. The

CYP2D6 [4] = conditions: Supplementary Table S2, supplementary reference list, cited from earlier work; for IC50: read-out: Inhibitory potency IC50
[5] = authors' classification of the literature value, Supplementary Table S2
[6] = IC50, P450-Glo CYP2D6 Inhibition Assay, recombinant human CYP2D6, 6 concentrations (compound 18: 4), n = 3

| SMILES | P450-Glo Detection Reaction MEAN Diff. (inhibition of the detection reaction) [1] [%] | P450-Glo Detection Reaction MEAN (total luminescence) [1] [% TL] | p < 0.05 (significant inhibition of the P450-Glo detection reaction) [1] | IC50 (CYP2D6 [2]) [µM] | classification of CYP2D6 inhibition (actives / weak actives / inactives) (CYP2D6 [2]) | also measured |
| --- | --- | --- | --- | --- | --- | --- |
| CCC1=CC2CN3CCc4c([nH]c5ccccc45)C(C(=O)OC)(C2)C13 (single isomer, unassigned; (+)) [Compound 7, (+)-Catharanthine] | 6.41 | 93.59 | Yes | 0.582 | actives (those compounds were classified as active, which exhibited CYP2D6 IC50 values up to 10 µM) | – |
| CC=C1C2CCN3CCC4(C(=C2C(=O)OC)Nc2ccccc24)C13 (single isomer, unassigned; (+)) [Compound 17, (+)-Condylocarpine] | 7.34 | 92.66 | Yes | 8.16 | actives (those compounds were classified as active, which exhibited CYP2D6 IC50 values up to 10 µM) | – |
| COc1ccc(CC2c3cc(O)c(OC)cc3CCN2C)cc1O (single isomer, unassigned; (+)) [Compound 19, (+)-Reticuline] | 1.06 | 98.94 | No | 0.0547 | actives (those compounds were classified as active, which exhibited CYP2D6 IC50 values up to 10 µM) | – |
| COC(=O)C1CC23C=CCN4CCC5(c6ccccc6NC15CC2)C43 (single isomer, unassigned; (-)) [Compound 10, (-)-Venalstonine] | 3.66 | 96.34 | No | – | – | – |
| COC(=O)N1c2ccccc2C23C4CN5CCCC6(CCC12C(O)(C6)C4=O)C53 (single isomer, unassigned; (-)) [Compound 16, (-)-Kopsine] | 10.30 | 89.70 | Yes | – | – | – |
| COC(=O)C1=CO[C@@H](C)[C@H]2CN3CCc4c([nH]c5ccccc45)[C@@H]3C[C@H]12 [Ajmalicine] | – | – | – | – | – | Classification of literature CYP2D6 inhibition (CYP2D6 [3]; [5]): active; IC50 (CYP2D6 [4]): 0.0023 µM |
| C=C[C@H]1CN2CC[C@H]1C[C@H]2[C@H](O)c1ccnc2ccccc12 [Cinchonidine] | – | – | – | – | – | Classification of literature CYP2D6 inhibition (CYP2D6 [3]; [5]): active; IC50 (CYP2D6 [4]): 10 µM |
| COC(=O)C1=CO[C@@H](C)[C@@H]2CN3CC[C@]4(C(=O)Nc5ccccc54)[C@@H]3C[C@H]12 [Compound 1, Pteropodine] | 7.50 | 92.50 | Yes | 33.8 | weak actives | – |
| COc1ccc2c(c1OC)CN1CCc3cc4c(cc3C1C2C)OCO4 (stereo not drawn) [Compound 3, Thalictrivacine] | 8.23 | 91.77 | Yes | – | actives (those compounds were classified as active, which exhibited CYP2D6 IC50 values up to 10 µM) | IC50 (CYP2D6 [2]; [6]): 5.14 µM |
| O=C(NCCCCNCCCNC(=O)c1ccc(O)c(O)c1)c1ccc(O)c(O)c1 [Compound 4, Pistillarin] | 13.61 | 86.39 | Yes | – | – | – |
| O=C(O)c1ccccc1-n1ccc2c([nH]c3ccccc32)c1=O [Compound 5, Secofascaplysic acid] | 20.46 | 79.54 | Yes | 50.4 | weak actives | – |
| COC(=O)C1C(O)CCC2C[N+]3(C)CCc4c([nH]c5cccc(OC)c45)C3CC21 (stereo not drawn) [Compound 8, Venenatine methiodide] | 9.14 | 90.86 | Yes | 4.6 | actives (those compounds were classified as active, which exhibited CYP2D6 IC50 values up to 10 µM) | – |
| COc1ccc(C[C@@H]2NCCc3cc(OC)c(O)cc32)cc1O [Compound 9, (S)-Norreticuline] | 7.64 | 92.36 | Yes | – | actives (those compounds were classified as active, which exhibited CYP2D6 IC50 values up to 10 µM) | IC50 at 45 min (CYP2D6 [2]; human, recombinant human CYP2D6 baculosomes, pH 7.4, probe ME-luciferin-EGE): 0.0636 µM |
| COc1ccc(C[C@H]2c3cc(OC)c(OC)cc3CCN2C)cc1O [Compound 11, (+)-Laudanidine] | 5.86 | 94.14 | Yes | 0.38 | actives (those compounds were classified as active, which exhibited CYP2D6 IC50 values up to 10 µM) | – |
| COc1cc2c(cc1OC)C1Cc3cc(O)c(O)cc3CN1CC2 (stereo not drawn) [Compound 14, Spinosine] | 4.73 | 95.27 | Yes | 0.117 | actives (those compounds were classified as active, which exhibited CYP2D6 IC50 values up to 10 µM) | – |
| COc1ccc(/C=C\c2cc(OC)c(OC)cc2CCN(C)C)cc1 [Compound 15, Des-N,O-dimethylarmepavine] | 6.23 | 93.77 | Yes | 0.198 | actives (those compounds were classified as active, which exhibited CYP2D6 IC50 values up to 10 µM) | – |
| COc1cc2c(cc1O)-c1c(O)c(OC)cc3c1[C@H](C2)N(C)CC3 [Compound 18, Bracteoline] | 12.30 | 87.70 | Yes | 2.11 | actives (those compounds were classified as active, which exhibited CYP2D6 IC50 values up to 10 µM) | – |
| COC1=C[C@]23CCN(C)[C@H](Cc4ccc(OC)c(O)c42)C3=CC1=O [Compound 20, (+)-Salutaridine] | 2.94 | 97.06 | No | 24 | weak actives | – |
| CC[C@]12C=CCN3CC[C@]4(C(=C(C(=O)OC)C1)Nc1ccccc14)[C@@H]32 [Compound 22, Tabersonine] | – | 104.20 | Yes | – | actives (those compounds were classified as active, which exhibited CYP2D6 IC50 values up to 10 µM) | IC50 (CYP2D6 [2]; [6]): 0.419 µM |
| COC(=O)C1=CO[C@@H](C)[C@H]2CN3CC[C@@]4(C(=O)Nc5ccccc54)[C@@H]3C[C@H]12 [Compound 23, Isomitraphylline] | 0.59 | 99.41 | No | – | – | – |
| COc1cc2c(cc1OC)[C@H]1[C@@H](C)c3ccc(OC)c(OC)c3CN1CC2 [Corydaline] | – | – | – | – | – | Classification of literature CYP2D6 inhibition (CYP2D6 [3]; [5]): weak; Classification of literature CYP2D6 inhibition (CYP2D6 [3]; w/o preincubation, authors' classification of the literature value, Supplementary Table S2): inactive; IC50 (CYP2D6 [4]; w/ preincubation): 64.5 ± 9.8 µM; IC50 (CYP2D6 [4]; w/o preincubation): 116 ± 7.6 µM |
| COc1cc2c(cc1O)CCN1Cc3c(ccc(OC)c3OC)C[C@H]21 [Corypalmine] | – | – | – | – | – | Classification of literature CYP2D6 inhibition (CYP2D6 [3]; [5]): active; IC50 (CYP2D6 [4]): 1 to 10 µM |
| COc1cc2c(cc1OC)C(=O)Cc1ccc3c(c1CN(C)CC2)OCO3 [Cryptopine] | – | – | – | – | – | Classification of literature CYP2D6 inhibition (CYP2D6 [3]; [5]): unclear; Inhibitory potency (CYP2D6 [4]): stated as inhibitor |
| COc1ccc(CC2c3cc(OC)c(OC)cc3CCN2C)cc1OC (stereo not drawn) [Laudanosine] | – | – | – | – | – | Classification of literature CYP2D6 inhibition (CYP2D6 [3]; [5]): unclear; Inhibitory potency (CYP2D6 [4]): stated as inhibitor |
| COc1ccc2c(c1OC)C(=O)O[C@@H]2[C@H]1c2c(cc3c(c2OC)OCO3)CCN1C [Noscapine] | – | – | – | – | – | Classification of literature CYP2D6 inhibition (CYP2D6 [3]; [5]): inactive; Inhibitory potency (IC50/Ki not specified) (CYP2D6 [4]): > 100 µM |
| COc1cc2c(cc1OC)-c1cc3ccc(OC)c(OC)c3c[n+]1CC2 [Palmatine chloride] | – | – | – | – | – | Classification of literature CYP2D6 inhibition (CYP2D6 [3]): weak; Inhibitory potency (IC50/Ki not specified) (CYP2D6 [4]): 92.6 µM |
| CN1CCc2cc3c(cc2C(=O)Cc2ccc4c(c2C1)OCO4)OCO3 [Protopine] | – | – | – | – | – | Classification of literature CYP2D6 inhibition (CYP2D6 [3]): active; Ki (CYP2D6 [4]; read-out: Inhibitory potency Ki): 0.078 µM |
